Measurements from PMC5666424, “Marine-Derived 2-Aminoimidazolone Alkaloids. Leucettamine B-Related Polyandrocarpamines Inhibit Mammalian and Protozoan DYRK & CLK Kinases” (Marine Drugs, 2017).

Assays:
Assay in all cases: KinomeScan
Format in all cases: binding
Details in all cases: 1 μM
ITK = molecular target: T1, ITK (Homo sapiens, UniProt Q08881)
T1 construct: purchased DiscoverX (KINOMEscan)

SNRK = molecular target: T2, SNRK (Homo sapiens, UniProt Q9NRH2)
T2 construct: purchased DiscoverX (KINOMEscan)

TIE2 = molecular target: T3, TIE2 (Homo sapiens, UniProt Q02763)
T3 construct: purchased DiscoverX (KINOMEscan)

FES = molecular target: T4, FES (Homo sapiens, UniProt P07332)
T4 construct: purchased DiscoverX (KINOMEscan)

MAK = molecular target: T5, MAK (Homo sapiens, UniProt P20794)
T5 construct: purchased DiscoverX (KINOMEscan)

MST4 = molecular target: T6, MST4 (Homo sapiens, UniProt Q9P289)
T6 construct: purchased DiscoverX (KINOMEscan)

ZAK = molecular target: T7, ZAK (Homo sapiens, UniProt Q9NYL2)
T7 construct: purchased DiscoverX (KINOMEscan)

[1] = molecular target: T8, ABL1(Q252H)-nonphosphorylated (Homo sapiens, UniProt P00519, Q252H)
T8 construct: purchased DiscoverX (KINOMEscan)

CSNK1E = molecular target: T9, CSNK1E (Homo sapiens, UniProt P49674)
T9 construct: purchased DiscoverX (KINOMEscan)

NEK9 = molecular target: T10, NEK9 (Homo sapiens, UniProt Q8TD19)
T10 construct: purchased DiscoverX (KINOMEscan)

YANK3 = molecular target: T11, YANK3 (Homo sapiens, UniProt Q86UX6)
T11 construct: purchased DiscoverX (KINOMEscan)

FGFR3(G697C) = molecular target: T12, FGFR3(G697C) (Homo sapiens, UniProt P22607, G697C)
T12 construct: purchased DiscoverX (KINOMEscan)

ERN1 = molecular target: T13, ERN1 (Homo sapiens, UniProt O75460)
T13 construct: purchased DiscoverX (KINOMEscan)

CDK8 = molecular target: T14, CDK8 (Homo sapiens, UniProt P49336)
T14 construct: purchased DiscoverX (KINOMEscan)

DYRK1B = DYRK1B (Homo sapiens, UniProt Q9Y463)
MLK1 = molecular target: T15, MLK1 (Homo sapiens, UniProt P80192)
T15 construct: purchased DiscoverX (KINOMEscan)

SYK = molecular target: T16, SYK (Homo sapiens, UniProt P43405)
T16 construct: purchased DiscoverX (KINOMEscan)

ERK8 = molecular target: T17, ERK8 (Homo sapiens, UniProt Q8TD08)
T17 construct: purchased DiscoverX (KINOMEscan)

MET(Y1235D) = molecular target: T18, MET(Y1235D) (Homo sapiens, UniProt P08581, Y1235D)
T18 construct: purchased DiscoverX (KINOMEscan)

CAMK1 = molecular target: T19, CAMK1 (Homo sapiens, UniProt Q14012)
T19 construct: purchased DiscoverX (KINOMEscan)

[2] = molecular target: T20, ABL1(Q252H)-phosphorylated (Homo sapiens, UniProt P00519, Q252H)
T20 construct: purchased DiscoverX (KINOMEscan)

ACVR2A = molecular target: T21, ACVR2A (Homo sapiens, UniProt P27037)
T21 construct: purchased DiscoverX (KINOMEscan)

ERK4 = molecular target: T22, ERK4 (Homo sapiens, UniProt P31152)
T22 construct: purchased DiscoverX (KINOMEscan)

EPHA4 = molecular target: T23, EPHA4 (Homo sapiens, UniProt P54764)
T23 construct: purchased DiscoverX (KINOMEscan)

SRPK2 = molecular target: T24, SRPK2 (Homo sapiens, UniProt P78362)
T24 construct: purchased DiscoverX (KINOMEscan)

CSNK1A1L = molecular target: T25, CSNK1A1L (Homo sapiens, UniProt Q8N752)
T25 construct: purchased DiscoverX (KINOMEscan)

CAMK4 = molecular target: T26, CAMK4 (Homo sapiens, UniProt Q16566)
T26 construct: purchased DiscoverX (KINOMEscan)

CHEK1 = molecular target: T27, CHEK1 (Homo sapiens, UniProt O14757)
T27 construct: purchased DiscoverX (KINOMEscan)

IRAK1 = molecular target: T28, IRAK1 (Homo sapiens, UniProt P51617)
T28 construct: purchased DiscoverX (KINOMEscan)

TRKA = molecular target: T29, TRKA (Homo sapiens, UniProt P04629)
T29 construct: purchased DiscoverX (KINOMEscan)

TAOK2 = molecular target: T30, TAOK2 (Homo sapiens, UniProt Q9UL54)
T30 construct: purchased DiscoverX (KINOMEscan)

EPHB6 = molecular target: T31, EPHB6 (Homo sapiens, UniProt O15197)
T31 construct: purchased DiscoverX (KINOMEscan)

BRK = molecular target: T32, BRK (Homo sapiens, UniProt Q13882)
T32 construct: purchased DiscoverX (KINOMEscan)

ACVR2B = molecular target: T33, ACVR2B (Homo sapiens, UniProt Q13705)
T33 construct: purchased DiscoverX (KINOMEscan)

MTOR = molecular target: T34, MTOR (Homo sapiens, UniProt P42345)
T34 construct: purchased DiscoverX (KINOMEscan)

ANKK1 = molecular target: T35, ANKK1 (Homo sapiens, UniProt Q8NFD2)
T35 construct: purchased DiscoverX (KINOMEscan)

LYN = molecular target: T36, LYN (Homo sapiens, UniProt P07948)
T36 construct: purchased DiscoverX (KINOMEscan)

T33 sequence (Q13705 19-512): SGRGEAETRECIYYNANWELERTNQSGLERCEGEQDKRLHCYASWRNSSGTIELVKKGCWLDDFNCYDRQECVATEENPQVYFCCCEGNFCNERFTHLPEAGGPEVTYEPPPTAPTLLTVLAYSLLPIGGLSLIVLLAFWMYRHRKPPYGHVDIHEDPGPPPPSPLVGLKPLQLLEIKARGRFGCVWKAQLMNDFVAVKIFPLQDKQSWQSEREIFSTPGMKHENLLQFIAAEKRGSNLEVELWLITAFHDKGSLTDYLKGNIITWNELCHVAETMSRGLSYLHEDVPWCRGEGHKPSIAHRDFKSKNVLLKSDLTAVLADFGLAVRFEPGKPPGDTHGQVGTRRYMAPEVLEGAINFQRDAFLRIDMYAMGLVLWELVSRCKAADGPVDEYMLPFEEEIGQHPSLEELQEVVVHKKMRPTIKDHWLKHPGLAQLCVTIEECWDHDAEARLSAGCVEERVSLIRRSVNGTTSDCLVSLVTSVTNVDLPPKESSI
Chain of DYRK1B (Q9Y463 whole entry): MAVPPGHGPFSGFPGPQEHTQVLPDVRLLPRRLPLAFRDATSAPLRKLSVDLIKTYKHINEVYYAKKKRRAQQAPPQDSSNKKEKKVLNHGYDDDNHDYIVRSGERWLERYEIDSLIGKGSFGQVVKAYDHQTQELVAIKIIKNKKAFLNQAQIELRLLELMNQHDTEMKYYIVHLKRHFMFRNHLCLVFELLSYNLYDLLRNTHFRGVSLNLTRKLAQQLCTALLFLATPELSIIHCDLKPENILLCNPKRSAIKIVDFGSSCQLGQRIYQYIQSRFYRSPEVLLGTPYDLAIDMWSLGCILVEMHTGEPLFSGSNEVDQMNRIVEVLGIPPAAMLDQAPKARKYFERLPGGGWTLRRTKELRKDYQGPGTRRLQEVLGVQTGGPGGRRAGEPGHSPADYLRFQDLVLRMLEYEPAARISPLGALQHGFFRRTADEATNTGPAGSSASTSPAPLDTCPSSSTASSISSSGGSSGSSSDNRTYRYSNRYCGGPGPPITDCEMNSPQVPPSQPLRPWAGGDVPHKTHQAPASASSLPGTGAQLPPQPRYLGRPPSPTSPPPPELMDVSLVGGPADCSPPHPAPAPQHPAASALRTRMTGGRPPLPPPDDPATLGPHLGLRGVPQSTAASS
T3 sequence (Q02763 23-1124): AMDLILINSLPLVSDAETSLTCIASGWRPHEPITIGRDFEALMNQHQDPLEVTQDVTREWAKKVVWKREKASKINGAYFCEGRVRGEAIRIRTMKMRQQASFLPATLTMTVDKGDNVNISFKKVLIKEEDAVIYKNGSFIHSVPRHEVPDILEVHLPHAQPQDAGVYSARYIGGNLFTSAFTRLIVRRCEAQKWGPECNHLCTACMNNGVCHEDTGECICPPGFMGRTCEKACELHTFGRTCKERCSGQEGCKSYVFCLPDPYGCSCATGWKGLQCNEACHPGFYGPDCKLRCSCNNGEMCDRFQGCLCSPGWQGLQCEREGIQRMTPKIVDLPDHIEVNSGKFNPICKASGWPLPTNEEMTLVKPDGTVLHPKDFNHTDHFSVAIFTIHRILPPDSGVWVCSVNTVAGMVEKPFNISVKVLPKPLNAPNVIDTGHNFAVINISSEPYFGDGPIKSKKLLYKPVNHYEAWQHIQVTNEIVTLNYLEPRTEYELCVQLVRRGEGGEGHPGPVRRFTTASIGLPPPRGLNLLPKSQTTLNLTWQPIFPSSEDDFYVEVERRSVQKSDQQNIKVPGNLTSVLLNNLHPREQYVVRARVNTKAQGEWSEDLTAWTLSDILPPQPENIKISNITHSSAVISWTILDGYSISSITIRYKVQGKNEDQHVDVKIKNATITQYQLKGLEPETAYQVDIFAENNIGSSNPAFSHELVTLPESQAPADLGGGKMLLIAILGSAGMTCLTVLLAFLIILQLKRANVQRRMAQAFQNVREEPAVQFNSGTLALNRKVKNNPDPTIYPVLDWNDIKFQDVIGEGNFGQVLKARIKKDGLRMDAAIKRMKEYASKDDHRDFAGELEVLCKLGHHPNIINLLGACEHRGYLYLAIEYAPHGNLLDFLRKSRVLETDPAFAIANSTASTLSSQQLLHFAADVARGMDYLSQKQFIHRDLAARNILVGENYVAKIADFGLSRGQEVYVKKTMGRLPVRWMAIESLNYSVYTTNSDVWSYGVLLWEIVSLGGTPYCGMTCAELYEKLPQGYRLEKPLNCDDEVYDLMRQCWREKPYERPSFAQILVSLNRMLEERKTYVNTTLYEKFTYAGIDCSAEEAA
T13 sequence (O75460 19-977): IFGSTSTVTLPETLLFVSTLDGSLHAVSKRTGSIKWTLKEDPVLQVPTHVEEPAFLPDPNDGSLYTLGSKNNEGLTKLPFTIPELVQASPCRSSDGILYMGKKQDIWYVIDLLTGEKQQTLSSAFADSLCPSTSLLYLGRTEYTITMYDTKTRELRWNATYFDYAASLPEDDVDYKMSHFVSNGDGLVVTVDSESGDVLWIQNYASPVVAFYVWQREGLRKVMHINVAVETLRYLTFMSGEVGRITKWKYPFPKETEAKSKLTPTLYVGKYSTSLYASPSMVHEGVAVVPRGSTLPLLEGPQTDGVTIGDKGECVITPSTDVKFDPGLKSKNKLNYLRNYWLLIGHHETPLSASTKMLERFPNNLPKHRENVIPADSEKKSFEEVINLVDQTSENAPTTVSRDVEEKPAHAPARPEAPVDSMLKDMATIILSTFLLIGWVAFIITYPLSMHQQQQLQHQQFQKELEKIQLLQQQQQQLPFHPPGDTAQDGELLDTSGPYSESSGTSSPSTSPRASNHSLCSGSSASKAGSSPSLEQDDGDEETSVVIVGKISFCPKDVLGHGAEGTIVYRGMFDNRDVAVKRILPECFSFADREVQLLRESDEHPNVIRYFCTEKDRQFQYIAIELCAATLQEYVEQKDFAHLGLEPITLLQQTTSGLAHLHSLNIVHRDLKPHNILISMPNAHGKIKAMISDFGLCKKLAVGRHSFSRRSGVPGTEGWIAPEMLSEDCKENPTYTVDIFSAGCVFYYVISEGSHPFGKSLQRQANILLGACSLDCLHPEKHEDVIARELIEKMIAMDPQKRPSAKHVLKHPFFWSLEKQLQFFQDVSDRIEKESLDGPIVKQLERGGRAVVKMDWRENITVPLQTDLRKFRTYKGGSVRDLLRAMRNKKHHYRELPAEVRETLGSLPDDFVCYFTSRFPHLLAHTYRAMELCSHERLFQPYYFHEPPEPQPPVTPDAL
T4 sequence (P07332 whole entry): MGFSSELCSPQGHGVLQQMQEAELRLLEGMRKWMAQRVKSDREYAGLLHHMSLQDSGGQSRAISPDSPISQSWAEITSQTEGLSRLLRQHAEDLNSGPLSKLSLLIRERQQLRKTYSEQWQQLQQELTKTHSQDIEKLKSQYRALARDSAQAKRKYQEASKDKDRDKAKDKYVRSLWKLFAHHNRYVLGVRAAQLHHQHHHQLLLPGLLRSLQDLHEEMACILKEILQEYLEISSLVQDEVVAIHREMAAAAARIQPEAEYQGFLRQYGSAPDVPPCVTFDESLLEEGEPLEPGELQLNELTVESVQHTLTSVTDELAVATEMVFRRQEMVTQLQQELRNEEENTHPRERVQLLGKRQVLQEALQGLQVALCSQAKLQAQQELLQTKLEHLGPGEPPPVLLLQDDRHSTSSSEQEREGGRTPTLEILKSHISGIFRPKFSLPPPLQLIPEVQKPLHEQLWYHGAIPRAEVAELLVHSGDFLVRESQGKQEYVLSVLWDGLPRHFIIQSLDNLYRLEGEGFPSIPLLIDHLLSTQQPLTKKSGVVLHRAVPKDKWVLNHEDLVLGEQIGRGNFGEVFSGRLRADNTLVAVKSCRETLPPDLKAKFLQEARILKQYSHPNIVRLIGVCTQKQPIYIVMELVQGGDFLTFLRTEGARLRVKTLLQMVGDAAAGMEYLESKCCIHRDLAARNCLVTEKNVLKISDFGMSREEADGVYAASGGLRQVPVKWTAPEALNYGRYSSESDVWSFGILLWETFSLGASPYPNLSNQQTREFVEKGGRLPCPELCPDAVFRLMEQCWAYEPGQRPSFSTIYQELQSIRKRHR
T26 sequence (Q16566 whole entry): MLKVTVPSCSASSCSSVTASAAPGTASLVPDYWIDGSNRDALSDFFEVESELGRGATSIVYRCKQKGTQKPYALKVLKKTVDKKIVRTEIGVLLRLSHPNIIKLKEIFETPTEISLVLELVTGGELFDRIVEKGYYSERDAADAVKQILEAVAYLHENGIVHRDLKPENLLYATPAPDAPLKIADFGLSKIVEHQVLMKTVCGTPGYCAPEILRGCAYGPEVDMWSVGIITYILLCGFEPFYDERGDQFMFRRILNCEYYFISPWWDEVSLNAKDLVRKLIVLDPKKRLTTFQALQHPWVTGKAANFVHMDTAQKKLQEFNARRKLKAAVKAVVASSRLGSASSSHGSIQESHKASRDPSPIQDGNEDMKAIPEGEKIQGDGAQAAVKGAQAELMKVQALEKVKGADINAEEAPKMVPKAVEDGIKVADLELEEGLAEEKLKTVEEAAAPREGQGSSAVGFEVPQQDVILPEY
T32 sequence (Q13882 whole entry): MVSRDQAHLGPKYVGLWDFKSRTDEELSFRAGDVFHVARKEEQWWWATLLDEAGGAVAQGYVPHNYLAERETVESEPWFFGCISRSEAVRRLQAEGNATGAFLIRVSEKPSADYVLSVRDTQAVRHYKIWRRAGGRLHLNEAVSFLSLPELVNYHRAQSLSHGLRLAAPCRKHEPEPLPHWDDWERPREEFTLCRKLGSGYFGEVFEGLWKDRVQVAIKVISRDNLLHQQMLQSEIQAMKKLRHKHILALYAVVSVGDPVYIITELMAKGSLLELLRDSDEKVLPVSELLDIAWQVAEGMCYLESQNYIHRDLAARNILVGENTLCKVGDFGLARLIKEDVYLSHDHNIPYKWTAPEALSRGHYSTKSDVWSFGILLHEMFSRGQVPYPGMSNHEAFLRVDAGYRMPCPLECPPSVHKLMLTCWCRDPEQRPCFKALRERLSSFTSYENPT

Question: What does the source list for `COc1cc(/C=C2\N=C(N)NC2=O)ccc1O` [Polyandrocarpamine A]?
Answer: Score (ITK): 94; Score (SNRK): 100; Score (TIE2): 98; Score (FES): 96; Score (MAK): 91; Score (MST4): 100; Score (ZAK): 95; Score [1]: 100; Score (CSNK1E): 87; Score (NEK9): 100; Score (YANK3): 100; Score (FGFR3(G697C)): 83; Score (ERN1): 100; Score (CDK8): 100; Score (DYRK1B): 25; Score (MLK1): 100; Score (SYK): 100; Score (ERK8): 67; Score (MET(Y1235D)): 100; Score (CAMK1): 100; Score [2]: 100; Score (ACVR2A): 100; Score (ERK4): 100; Score (EPHA4): 83; Score (SRPK2): 100; Score (CSNK1A1L): 100; Score (CAMK4): 94; Score (CHEK1): 100; Score (IRAK1): 28; Score (TRKA): 95; Score (TAOK2): 100; Score (EPHB6): 97; Score (BRK): 100; Score (ACVR2B): 99; Score (MTOR): 84; Score (ANKK1): 100; Score (LYN): 89
